Data taken from ChEMBL document CHEMBL5505996, “Discovery of novel osthole derivatives exerting anti-inflammatory effect on DSS-induced ulcerative colitis and LPS-induced acute lung injury in mice” (Eur J Med Chem, 2024).
Activity calls are given as the source filed them. The rule behind the calls is not given here.

Legend:
Mus musculus [1] = test: Antiinflammatory activity against C57BL/6 mouse model of DSS induced ulcerative colitis assessed as reduction in inflammatory cytokines infiltration in intestine at 20 mg/kg, po administered daily for 10 days by immunohistochemical staining based analysis; type: functional, organism-based; conditions: time 10.0 day
Mus musculus [2] = test: Antiinflammatory activity against C57BL/6 mouse model of LPS induced acute lung injury assessed as reduction in pulmonary edema by measuring reduction in lung wet/dry ratio at 20 mg/kg, po administered every 12 hrs for 3 times followed by LPS stimulation for 6 hrs starting from 30 mins post last dose; type: functional, organism-based; conditions: time 42.5 hrs
RAW264.7 = test: Antiinflammatory activity against LPS-induced mouse RAW264.7 cells assessed as inhibition of TNF-alpha release pretreated for 30 mins followed by LPS stimulation and measured after 24 hrs by ELISA; type: functional, cell-based
J774.A1 [3] = test: Antiinflammatory activity against LPS-induced mouse J774.A1 cells assessed as inhibition of IL-6 release at 10 uM pretreated for 30 mins followed by LPS stimulation and measured after 24 hrs by ELISA relative to control; type: functional; conditions: time 24.5 hrs
Mus musculus [4] = test: Antiinflammatory activity against C57BL/6 mouse model of LPS induced acute lung injury assessed as reduction in IL-6 level in serum at 20 mg/kg, po administered every 12 hrs for 3 times followed by LPS stimulation for 6 hrs starting from 30 mins post last dose by ELISA; type: functional, organism-based; conditions: time 42.5 hrs
J774.A1 [5] = test: Antiinflammatory activity against LPS-induced mouse J774.A1 cells assessed as inhibition of TNF-alpha release pretreated for 30 mins followed by LPS stimulation and measured after 24 hrs by ELISA; type: functional, cell-based
Mus musculus [6] = test: (§1) Antiinflammatory activity against C57BL/6 mouse model of LPS induced acute lung injury assessed as reduction in TNF-alpha mRNA expression in lung at 20 mg/kg, po administered every 12 hrs for 3 times followed by LPS stimulation for 6 hrs starting from 30 mins post last dose by RT-qPCR analysis; type: functional, organism-based; conditions: time 42.5 hrs
[7] = Acute toxicity in ICR mouse assessed as pathological changes in lung at 500 mg/kg, po measured daily for 10 days by H and E staining based analysis; type: organism-based; conditions: in vivo, 240 h, time 10 day
Mus musculus [8] = test: as §1, with “thickening of alveolar septa” for “TNF-alpha mRNA expression in lung”, “H and E staining based” for “RT-qPCR”; type: functional, organism-based; conditions: time 42.5 hrs
J774.A1 [9] = test: Inhibition of MAPK signaling pathway in LPS-stimulated mouse J774.A1 cells assessed as reduction in ERK1/2 phosphorylation at 10 uM pretreated for 2 hrs followed by LPS stimulation and measured after 30 mins by Western blot analysis; type: cell-based; conditions: time 2.5 hrs
THP-1 = test: Antiinflammatory activity against LPS-induced PMA-differentiated human THP-1 cells assessed as inhibition of IL-6 release pretreated for 30 mins followed by LPS stimulation and measured after 24 hrs by ELISA; type: functional, cell-based
[10] = Acute toxicity in ICR mouse assessed as pathological changes in heart at 500 mg/kg, po measured daily for 10 days by H and E staining based analysis; type: organism-based; conditions: in vivo, 240 h, time 10 day
Mus musculus [11] = test: Antiinflammatory activity against C57BL/6 mouse model of LPS induced acute lung injury assessed as reduction in IL-6 level in BALF at 20 mg/kg, po administered every 12 hrs for 3 times followed by LPS stimulation for 6 hrs starting from 30 mins post last dose by ELISA; type: functional, organism-based; conditions: time 42.5 hrs
[12] = molecular target: Mitogen-activated protein kinase kinase kinase 7 (Homo sapiens) (UniProt O43318); test: Inhibition of TAK1 (unknown origin) at 10 uM relative to control
[13] = Acute toxicity in ICR mouse assessed as effect on daily activities at 500 mg/kg, po measured daily for 10 days; type: organism-based; conditions: in vivo, 240 h, time 10 day

Sequence of Mitogen-activated protein kinase kinase kinase 7 (Homo sapiens) (O43318 whole entry, looked up): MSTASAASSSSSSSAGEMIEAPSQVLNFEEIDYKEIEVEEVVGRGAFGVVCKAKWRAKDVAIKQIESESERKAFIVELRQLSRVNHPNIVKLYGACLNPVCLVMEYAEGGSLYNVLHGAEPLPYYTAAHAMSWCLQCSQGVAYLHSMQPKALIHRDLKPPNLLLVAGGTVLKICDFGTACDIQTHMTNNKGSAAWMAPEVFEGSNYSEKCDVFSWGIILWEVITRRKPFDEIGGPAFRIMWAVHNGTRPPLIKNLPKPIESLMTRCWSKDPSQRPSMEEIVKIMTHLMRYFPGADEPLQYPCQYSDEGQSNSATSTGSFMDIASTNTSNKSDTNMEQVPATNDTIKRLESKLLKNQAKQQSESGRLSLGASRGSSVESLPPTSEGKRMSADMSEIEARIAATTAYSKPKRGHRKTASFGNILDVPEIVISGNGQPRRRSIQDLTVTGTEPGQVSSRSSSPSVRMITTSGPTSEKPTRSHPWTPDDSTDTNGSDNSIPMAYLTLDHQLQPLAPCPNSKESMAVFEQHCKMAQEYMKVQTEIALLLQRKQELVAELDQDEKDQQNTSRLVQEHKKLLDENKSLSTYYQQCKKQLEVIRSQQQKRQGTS

With CC(C)=CCc1c(OCCCCNCCN2CCOCC2)ccc2ccc(=O)oc12 the Activity (Mus musculus [1]) was “Active”, the Activity (Mus musculus [2]) was “Active” and the IC50 (RAW264.7) was 29.7 µM. For the same molecule, the inhibition at 10 µM (J774.A1 [3]) was 95%, the Activity (Mus musculus [4]) was “Active” and the IC50 (J774.A1 [5]) was 18.1 µM. For the same molecule, the Activity (Mus musculus [6]) was “Active”, the Activity [7] was “Non-Toxic” and the Activity (Mus musculus [8]) was “Active”. The inhibition (J774.A1 [9]) was “inactive”, the IC50 (THP-1) was 10.6 µM and the Activity [10] was “Non-Toxic”. For the same molecule, the Activity (Mus musculus [11]) was “Active”, the inhibition [12] was 5.23% and the Activity [13] was “Non-Toxic”.
